Columns and labels:
Assay type in all cases: cell-based
[1] = system: IFNγ induced ICAM-1 (CD54) up-regulation in U937 human monocytic cells (JAK/Stat pathway); assay: U937 IFNγ ICAM1 FACS Assay; settings: Table III Example 6, 10 ng/mL IFNγ, 18-24 hours
How it was run: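 U937 cells (100,000 per well) were pre-incubated 30 min at 37 °C with serially 3-fold diluted compound, then stimulated with IFNγ for 18–24 h. Surface ICAM-1 was measured by flow cytometry as the geometric mean of ICAM-APC on gated live cells. EC50 values were calculated from dose curves, with % live cells also recorded.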

[2] = system: primary human T-cells (IL-2 induced proliferation, JAK-1/JAK-3, Stat-5); assay: Primary Human T-Cell Proliferation Assay Stimulated with IL-2 (CellTiter-Glo); settings: Table III Example 4
How it was run: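 Pre-activated peripheral-blood T-cells (TCR/CD28 stimulated, IL-2-maintained) were IL-2-depleted, then plated in Yssel's medium with 80 U/mL IL-2 in the cell suspension and compound in duplicate. Proliferation ran 72 h at 37 °C; viable cells quantified by CellTiter-Glo ATP luminescence, with IL-2-omitted wells as unstimulated control.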

[3] = system: IL-4 stimulated CD23 upregulation in human Ramos B cells (JAK-1/JAK-3, Stat-6); assay: Assay for Ramos B-Cell Line Stimulated with IL-4 (CD23 upregulation, FACS); settings: Table III Example 3
How it was run: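 Log-phase Ramos B cells (5×10^4 per point, RPMI with 5% serum) pre-incubated with compound or DMSO 1 h at 37° C, then stimulated with IL-4 at 50 units/mL final for 20-24 h. CD23 upregulation measured by staining and flow cytometry.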

SMILES | IC50 ([1]; Homo sapiens, U-937) | IC50 ([2]; Homo sapiens, T-cell) | IC50 ([3]; Homo sapiens, Ramos) | IC50 [1] | IC50 [2] | IC50 [3]
C#CCNS(=O)(=O)Cc1ccc(Nc2nc(Nc3cccc(S(N)(=O)=O)c3)ncc2F)cc1 [Compound I-4, N2-(3-Aminosulfonylphenyl)-5-fluoro-N4-[4-(prop-2-ynylaminosulfonylmethyl)phenyl]-2,4-pyrimidinediamine] | 908 nM | 109 nM | 141 nM | – | – | –
C#CCNS(=O)(=O)Cc1ccc(Nc2nc(Nc3ccc(C)c(S(N)(=O)=O)c3)ncc2F)cc1 [Compound I-5, N2-(3-Aminosulfonyl-4-methylphenyl)-5-fluoro-N4-[4-(prop-2-ynylaminosulfonylmethyl)phenyl]-2,4-pyrimidinediamine] | 710 nM | 120 nM | 130 nM | – | – | –
CCS(=O)(=O)NCc1ccc(Nc2nc(Nc3ccc(C)c(S(N)(=O)=O)c3)ncc2F)cc1 [Compound I-10, N2-(3-aminosulfonyl-4-methyl)phenyl-N4-(4-ethylsulfonylaminomethyl)phenyl-5-fluoro-2,4-pyrimidinediamine] | – | – | – | 477 nM | 60.6 nM | 94 nM
CCS(=O)(=O)NCc1cccc(Nc2nc(Nc3cccc(S(N)(=O)=O)c3)ncc2F)c1 [Compound I-12, N2-(3-aminosulfonyl)phenyl-N4-(3-ethylsulfonylaminomethyl)phenyl-5-fluoro-2,4-pyrimidinediamine] | – | – | – | 1580 nM | 158 nM | 170 nM
CCS(=O)(=O)NCc1cccc(Nc2nc(Nc3ccc(C)c(S(N)(=O)=O)c3)ncc2F)c1 [Compound I-13, N2-(3-aminosulfonyl-4-methyl)phenyl-N4-(3-ethylsulfonylaminomethyl)phenyl-5-fluoro-2,4-pyrimidinediamine] | – | – | – | 536 nM | 197 nM | 136 nM
CCS(=O)(=O)NCCc1ccc(Nc2nc(Nc3ccc(C)c(S(N)(=O)=O)c3)ncc2F)cc1 [Compound I-16, N2-(3-aminosulfonyl-4-methyl)phenyl-N4-[4-(2-ethylsulfonylamino)ethyl]phenyl-5-fluoro-2,4-pyrimidinediamine] | – | – | – | 2280 nM | 536 nM | 148 nM
CCS(=O)(=O)NCc1ccc(Nc2nc(Nc3cccc(S(N)(=O)=O)c3)ncc2C)cc1 [Compound I-21, N2-(3-aminosulfonyl)phenyl-N4-(4-ethylsulfonylaminomethyl)phenyl-5-methyl-2,4-pyrimidinediamine] | – | – | – | 362 nM | 58.9 nM | 81.2 nM
CCS(=O)(=O)N[C@@H](C)c1ccc(Nc2nc(Nc3cccc(S(N)(=O)=O)c3)ncc2F)cc1 [Compound I-27, N2-(3-aminosulfonyl)phenyl-N4-[4-(1S-ethylsulfonylamino)ethyl]phenyl-5-fluoro-2,4-pyrimidinediamine] | – | – | – | 1240 nM | 144 nM | 118 nM
CCS(=O)(=O)N[C@H](C)c1ccc(Nc2nc(Nc3cccc(S(N)(=O)=O)c3)ncc2F)cc1 [Compound I-30, N2-(3-aminosulfonyl)phenyl-N4-[4-(1R-ethylsulfonylamino)ethyl]phenyl-5-fluoro-2,4-pyrimidinediamine] | – | – | – | 1160 nM | 153 nM | 74.3 nM
Cc1ccc(Nc2ncc(F)c(Nc3cccc(CNS(=O)(=O)C4CC4)c3)n2)cc1S(N)(=O)=O [Compound I-34, N2-(3-aminosulfonyl-4-methyl)phenyl-N4-(3-cyclopropylsulfonylaminomethyl)phenyl-5-fluoro-2,4-pyrimidinediamine] | – | – | – | 1190 nM | 484 nM | 184 nM
Cc1ccc(Nc2ncc(F)c(Nc3ccc(CNS(=O)(=O)c4cccs4)cc3)n2)cc1S(N)(=O)=O [Compound I-37, N2-(3-aminosulfonyl-4-methyl)phenyl-5-fluoro-N4-[4-(thiophen-2-yl)sulfonylaminomethyl]phenyl-2,4-pyrimidinediamine] | – | – | – | 375 nM | 152 nM | 46.2 nM
CCS(=O)(=O)NCCc1ccc(Nc2nc(Nc3cccc(S(N)(=O)=O)c3)ncc2C)cc1 [Compound I-39, N2-(3-aminosulfonyl)phenyl-N4-[4-(2-ethylsulfonylamino)ethyl]phenyl-5-methyl-2,4-pyrimidinediamine] | – | – | – | 604 nM | 58 nM | 46.2 nM
CCS(=O)(=O)NCCc1ccc(Nc2nc(Nc3ccc(C)c(S(N)(=O)=O)c3)ncc2C)cc1 [Compound I-40, N2-(3-aminosulfonyl-4-methyl)phenyl-N4-[4-(2-ethylsulfonylamino)ethyl]phenyl-5-methyl-2,4-pyrimidinediamine] | – | – | – | 341 nM | 92.4 nM | 68.1 nM
Cc1ccc(Nc2ncc(C)c(Nc3ccc(CNS(=O)(=O)C4CC4)cc3)n2)cc1S(N)(=O)=O [Compound I-47, N2-(3-aminosulfonyl-4-methyl)phenyl-N4-(4-cyclopropylsulfonylaminomethyl)phenyl-5-methyl-2,4-pyrimidinediamine] | – | – | – | 104 nM | 36.2 nM | 28 nM
NS(=O)(=O)c1ccc(Nc2ncc(F)c(Nc3ccc(CNS(=O)(=O)CC(F)(F)F)cc3)n2)cc1 [Compound I-48, N2-(4-aminosulfonyl)phenyl-5-fluoro-N4-(4-trifluoroethylsulfonylaminomethyl)phenyl-2,4-pyrimidinediamine] | – | – | – | 3760 nM | 758 nM | 263 nM
NS(=O)(=O)c1cccc(Nc2ncc(F)c(Nc3ccc(CNS(=O)(=O)CC(F)(F)F)cc3)n2)c1 [Compound I-49, N2-(3-aminosulfonyl)phenyl-5-fluoro-N4-(4-trifluoroethylsulfonylaminomethyl)phenyl-2,4-pyrimidinediamine] | – | – | – | 836 nM | 38.3 nM | 46.8 nM
Cc1ccc(Nc2ncc(F)c(Nc3ccc(CNS(=O)(=O)CC(F)(F)F)cc3)n2)cc1S(N)(=O)=O [Compound I-50, N2-(3-aminosulfonyl-4-methyl)phenyl-5-fluoro-N4-(4-trifluoroethylsulfonylaminomethyl)phenyl-2,4-pyrimidinediamine] | – | – | – | 548 nM | 62.7 nM | 34.3 nM
Cc1cnc(Nc2cccc(S(N)(=O)=O)c2)nc1Nc1cccc(CNS(=O)(=O)C2CC2)c1 [Compound I-51, N2-(3-aminosulfonyl)phenyl-N4-(3-cyclopropylsulfonylaminomethyl)phenyl-5-methyl-2,4-pyrimidinediamine] | – | – | – | 324 nM | 29.7 nM | 62.2 nM
Cc1ccc(Nc2ncc(C)c(Nc3cccc(CNS(=O)(=O)C4CC4)c3)n2)cc1S(N)(=O)=O [Compound I-52, N2-(3-aminosulfonyl-4-methyl)phenyl-N4-(3-cyclopropylsulfonylaminomethyl)phenyl-5-methyl-2,4-pyrimidinediamine] | – | – | – | 203 nM | 66.2 nM | 68.5 nM
Cc1cnc(Nc2cccc(S(N)(=O)=O)c2)nc1Nc1ccc(CCNS(=O)(=O)C2CC2)cc1 [Compound I-54, N2-(3-aminosulfonyl)phenyl-N4-[4-(2-cyclopropylsulfonylamino)ethyl]phenyl-5-methyl-2,4-pyrimidinediamine] | – | – | – | 389 nM | 47 nM | 94.3 nM
Cc1ccc(Nc2ncc(C)c(Nc3ccc(CCNS(=O)(=O)C4CC4)cc3)n2)cc1S(N)(=O)=O [Compound I-55, N2-(3-aminosulfonyl-4-methyl)phenyl-N4-[4-(2-cyclopropylsulfonylamino)ethyl]phenyl-5-methyl-2,4-pyrimidinediamine] | – | – | – | 360 nM | 84.5 nM | 78.8 nM
Cc1ccc(Nc2ncc(F)c(Nc3ccc(CNS(=O)(=O)C(C)C)cc3)n2)cc1S(N)(=O)=O [Compound I-67, N2-(3-aminosulfonyl-4-methyl)phenyl-5-fluoro-N4-(4-isopropylsulfonylaminomethyl)phenyl-2,4-pyrimidinediamine] | – | – | – | 321 nM | 84.5 nM | 82.4 nM
NS(=O)(=O)c1ccc(Nc2ncc(F)c(Nc3ccc(CNS(=O)(=O)C4CCCC4)cc3)n2)cc1 [Compound I-68, N2-(4-aminosulfonyl)phenyl-N4-(4-cyclopentylsulfonylaminomethyl)phenyl-5-fluoro-2,4-pyrimidinediamine] | – | – | – | 289 nM | 102 nM | 94 nM
NS(=O)(=O)c1cccc(Nc2ncc(F)c(Nc3ccc(CNS(=O)(=O)C4CCCC4)cc3)n2)c1 [Compound I-69, N2-(3-aminosulfonyl)phenyl-N4-(4-cyclopentylsulfonylaminomethyl)phenyl-5-fluoro-2,4-pyrimidinediamine] | – | – | – | 176 nM | 50 nM | 51.5 nM
Cc1ccc(Nc2ncc(F)c(Nc3ccc(CNS(=O)(=O)C4CCCC4)cc3)n2)cc1S(N)(=O)=O [Compound I-70, N2-(3-aminosulfonyl-4-methyl)phenyl-N4-(4-cyclopentylsulfonylaminomethyl)phenyl-5-fluoro-2,4-pyrimidinediamine] | – | – | – | 159 nM | 150 nM | 43 nM
NS(=O)(=O)c1ccc(Nc2ncc(F)c(Nc3ccc(CNS(=O)(=O)C4CCCCC4)cc3)n2)cc1 [Compound I-71, N2-(4-aminosulfonyl)phenyl-N4-(4-cyclohexylsulfonylaminomethyl)phenyl-5-fluoro-2,4-pyrimidinediamine] | – | – | – | 401 nM | 132 nM | 120 nM

Reference: patent publication US9481654B2, “Compositions and methods for inhibition of the JAK pathway” (Rigel Pharmaceuticals, Inc., priority 2006, dated 2016)
